Reference: article PMC11840788, “3,3′-Diindolylmethane (DIM): A Molecular Scaffold for Inhibition of WWP1 and WWP2, Members of the NEDD4 Family HECT E3 Ligases” (ACS Omega, 2025)
“And” between values parts separate entries of the source, which are not always exact repeats. Equal entries are not always repeated.

Key:
[1] = set-up: method as in PMID 17699787; conditions: cited from earlier work
[2] = target: T1, WWP1 (His-tagged WWP1-L34H) (Homo sapiens, UniProt Q9H0M0); assay: in vitro autoubiquitination assay (single shot and dose dependency), WWP1; assay type: biochemical; conditions: for inhibition of WWP1 (in words): autoubiquitination assay; for IC50: nonlinear regression of RA against log concentration, 1 mM to 10 nM, 1% DMSO; for WWP1 RA (%) relative activity: single shot, compound at 1 mM (1% DMSO), standardized to 0 and 100% controls
T1 construct: WWP1- 2,3-linker-WW3-WW4-HECT (WWP1-L34H); made in house; host or cells: E. coli BL21-CodonPlus RP (plasmid pET32a-WWP1-L34H, gift of Dr Wenyu Wen)
Procedure: (§1) A single shot in vitro autoubiquitination assay was performed for I3C, DIM and each of the derivatives against WWP1 and WWP2 using a compound concentration of 1 mM (1% DMSO) (SI Figure S3). […] These active compounds were then subjected to a detailed dose dependency analysis leading to IC50 values. This strategy has previously been employed to screen other WWP1/WWP2 small molecule inhibitors as well as used to assess I3C inhibition toward NEDD4-1.[29],[32] In this way, compounds displaying a relative activity (RA) of less than 50% in the single shot assay were further screened for dose-dependency using a logarithmic concentration range from 10 nM to 1 mM (1% DMSO) (SI Figure S4). […] These were confirmed by counter assays to remove compounds possibly interacting with other enzymes in the assay or interfering with the assay directly (SI Table S1).
(§2) Cell lysate containing His-tagged WWP1-L34H or GST-tagged WWP2-FL proteins were incubated on either 96-well Clear Pierce glutathione or nickel-coated plates for 1 h. Reaction mixtures of either 3 ng/well GST-Uba1 and 15 ng/well UbcH7 or 10 ng/well His-Uba1 and 150 ng/well His-UbcH7 were incubated together in 25 mM Tris pH 8.0, 100 mM NaCl, 4 mM MgCl2 containing 60 ng/well FLAG-ubiquitin and 1.25 mM ATP for 40 min. A prior 1% BSA plate blocking step is required for nickel-coated plates. After plate washing, 2 μL of the compound was added at the desired concentration (1% DMSO) followed by 18 μL of the reaction mixture. This was then incubated for 2 h with 0 and 100% controls before 100 μL of anti-FLAG M2-Peroxidase HRP (1:10,000 PBST) was added to each well and incubated for 1 h. Finally, 100 μL of 1 × TMB substrate solution (Invitrogen) was added to each well and incubated for up to 10 min until sufficient blue color change was observed. To stop the reaction, 100 μL of 1 M HCl was added. For the counter assay, 3 ng/well GST-Uba1 and 200 ng/well UbcH7 were incubated with the other reaction mixture components for 1 h before incubating onto plates for a further 1 h. All other steps were followed. The plates were washed three times with PBST (and 15 mM Imidazole) between each step. Quantification was measured by absorbance read at 450 nm. All assay optimizations were as previously reported.[32] IC50 nonlinear regression curves were calculated in GraphPad v10.2 (Prism). […]
(§3) Auto-ubiquitination Assay
(§4) Cell lysate containing His-tagged WWP1-L34H or GST-tagged WWP2-FL proteins were incubated on either 96-well Clear Pierce glutathione 2 or nickel-coated plates for 1 hour. Reaction mixtures of either 3 ng/well GST-Uba1 and 15 ng/well UbcH7 or 10 ng/well His-Uba1 and 150 ng/well His-UbcH7 were incubated together in 25 mM Tris pH 8.0, 100 mM NaCl, 4 mM MgCl2 containing 60 ng/well FLAG-ubiquitin and 1.25 mM ATP for 40 minutes. A prior 1 % BSA plate blocking step is required for nickel-coated plates. After plate washing, 2 μL of the compound was added at the desired concentration (1 % DMSO) followed by 18 μL of the reaction mixture. This was then incubated for 2 hours with 0% and 100% controls before 100 μL of anti-FLAG M2-Peroxidase HRP (1: 10,000 PBST) was added to each well and incubated for 1 hour.
(§5) Finally, 100 μL of 1 × TMB substrate solution (Invitrogen) was added to each well and […]
(§6) incubated for up to 10 minutes until sufficient blue colour change was observed. To stop the reaction, 100 μL of 1 M HCl was added. For the counter assay, 3 ng/well GST-Uba1 and 200 ng/well UbcH7 were incubated with the other reaction mixture components for 1 hour before incubating onto plates for a further 1 hour. All other steps were followed.
(§7) The plates were washed three times with PBST (and 15 mM Imidazole) between each step. Quantification was measured by absorbance read at 450 nm. All assay optimisations have been previously reported by Watt and colleagues3.
(§8) Relative activity (RA) was determined by comparing the autoubiquitination of the WWP ligases in the presence of each compound, i.e TMB absorbance (450 nm), to the […]

[3] = target: T2, WWP2 (GST-tagged WWP2-FL) (Homo sapiens, UniProt O00308); assay: in vitro autoubiquitination assay (single shot and dose dependency), WWP2; assay type: biochemical; conditions: for inhibition of WWP2 (in words): autoubiquitination assay; for IC50: nonlinear regression of RA against log concentration, 1 mM to 10 nM, 1% DMSO; for WWP2 RA (%) relative activity: single shot, compound at 1 mM (1% DMSO), standardized to 0 and 100% controls
T2 construct: Full- length WWP2 (WWP2-FL); made in house; host or cells: E. coli BL21-CodonPlus RP (plasmid pGEX2T-WWP2-FL, Dr Andrew Chantry's Lab)
Procedure: as §1, §2, §3, §4, §5, §6, §7, §8

UbcH7 = target: T3, UbcH7 (Homo sapiens, UniProt P68036); assay: counter auto-ubiquitination screen; assay type: biochemical; conditions: counter assay, GST-Uba1 and UbcH7 without E3
T3 construct: GST (N, cleaved yes); made in house; host or cells: E. coli BL21 (DE3) (pGEX4T-1-UbcH7a and pGEX4T-1-hUba1, gifts of Dr Arthur L Haas's Lab)
Procedure: as §1
Cell lysate containing His-tagged WWP1-L34H or GST-tagged WWP2-FL proteins were incubated on either 96-well Clear Pierce glutathione or nickel-coated plates for 1 h. Reaction mixtures of either 3 ng/well GST-Uba1 and 15 ng/well UbcH7 or 10 ng/well His-Uba1 and 150 ng/well His-UbcH7 were incubated together in 25 mM Tris pH 8.0, 100 mM NaCl, 4 mM MgCl2 containing 60 ng/well FLAG-ubiquitin and 1.25 mM ATP for 40 min. A prior 1% BSA plate blocking step is required for nickel-coated plates. […] Quantification was measured by absorbance read at 450 nm. […] IC50 nonlinear regression curves were calculated in GraphPad v10.2 (Prism). […]
The plates were washed three times with PBST (and 15 mM Imidazole) between each step. Quantification was measured by absorbance read at 450 nm. […]
Relative activity (RA) was determined by comparing the autoubiquitination of the WWP ligases in the presence of each compound, i.e TMB absorbance (450 nm), to the 100 % controls (1 % DMSO only), further normalising against background absorbance using 0 % controls (no E3 loaded). […]
IC50 non-linear regression curves were calculated in GraphPad v10.2 (Prism). […]

WWP1 = WWP1 (Homo sapiens, UniProt Q9H0M0); set-up: method as in PMID 31097636, doi:10.1016/j.phytol.2023.01.002; conditions: cited from earlier work
NEDD4-1 = tested on: NEDD4-1; set-up: method as in PMID 27979631; conditions: cited from earlier work

T1 sequence (Q9H0M0 415-922, stated change not applied): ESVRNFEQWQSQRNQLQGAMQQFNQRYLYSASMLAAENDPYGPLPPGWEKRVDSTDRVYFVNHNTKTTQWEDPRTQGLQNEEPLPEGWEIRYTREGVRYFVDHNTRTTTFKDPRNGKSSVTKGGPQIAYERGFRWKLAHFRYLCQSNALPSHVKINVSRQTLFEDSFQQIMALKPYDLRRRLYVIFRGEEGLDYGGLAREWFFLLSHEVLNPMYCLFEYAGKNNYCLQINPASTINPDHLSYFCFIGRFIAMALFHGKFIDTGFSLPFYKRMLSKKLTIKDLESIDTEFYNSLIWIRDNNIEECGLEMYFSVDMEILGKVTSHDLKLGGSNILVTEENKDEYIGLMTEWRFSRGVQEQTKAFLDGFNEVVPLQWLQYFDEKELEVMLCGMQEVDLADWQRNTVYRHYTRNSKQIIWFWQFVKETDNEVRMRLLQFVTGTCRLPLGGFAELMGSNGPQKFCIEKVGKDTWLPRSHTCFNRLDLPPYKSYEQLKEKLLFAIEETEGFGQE
T3 sequence (P68036 whole entry): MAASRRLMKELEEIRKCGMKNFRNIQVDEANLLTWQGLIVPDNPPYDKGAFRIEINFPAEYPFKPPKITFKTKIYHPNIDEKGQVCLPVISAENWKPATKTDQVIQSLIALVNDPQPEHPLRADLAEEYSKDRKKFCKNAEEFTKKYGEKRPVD
T2 sequence (O00308 whole entry): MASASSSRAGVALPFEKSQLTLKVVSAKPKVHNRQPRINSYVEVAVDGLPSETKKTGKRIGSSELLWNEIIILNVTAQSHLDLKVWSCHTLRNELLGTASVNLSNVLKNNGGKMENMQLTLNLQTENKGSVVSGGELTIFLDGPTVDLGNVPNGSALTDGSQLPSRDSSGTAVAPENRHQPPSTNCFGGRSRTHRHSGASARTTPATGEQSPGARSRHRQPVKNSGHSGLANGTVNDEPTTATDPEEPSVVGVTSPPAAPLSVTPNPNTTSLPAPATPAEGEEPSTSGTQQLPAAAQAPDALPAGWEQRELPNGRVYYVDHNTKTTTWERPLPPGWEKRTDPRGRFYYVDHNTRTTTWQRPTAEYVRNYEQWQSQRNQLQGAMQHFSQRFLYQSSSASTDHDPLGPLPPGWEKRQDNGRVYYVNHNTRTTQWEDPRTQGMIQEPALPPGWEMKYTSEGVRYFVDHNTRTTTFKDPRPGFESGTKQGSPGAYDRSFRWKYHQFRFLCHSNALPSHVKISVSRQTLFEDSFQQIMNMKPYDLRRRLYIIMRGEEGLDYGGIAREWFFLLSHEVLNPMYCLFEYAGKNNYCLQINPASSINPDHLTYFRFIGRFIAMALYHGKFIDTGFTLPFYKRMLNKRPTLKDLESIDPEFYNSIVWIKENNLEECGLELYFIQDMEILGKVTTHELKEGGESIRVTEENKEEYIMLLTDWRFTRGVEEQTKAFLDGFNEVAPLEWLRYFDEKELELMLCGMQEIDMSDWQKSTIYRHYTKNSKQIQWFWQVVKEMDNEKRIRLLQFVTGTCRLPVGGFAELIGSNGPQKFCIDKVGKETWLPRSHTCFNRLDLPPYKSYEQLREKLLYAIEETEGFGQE
Sequence of WWP1 (Q9H0M0 546-922 limits assumed): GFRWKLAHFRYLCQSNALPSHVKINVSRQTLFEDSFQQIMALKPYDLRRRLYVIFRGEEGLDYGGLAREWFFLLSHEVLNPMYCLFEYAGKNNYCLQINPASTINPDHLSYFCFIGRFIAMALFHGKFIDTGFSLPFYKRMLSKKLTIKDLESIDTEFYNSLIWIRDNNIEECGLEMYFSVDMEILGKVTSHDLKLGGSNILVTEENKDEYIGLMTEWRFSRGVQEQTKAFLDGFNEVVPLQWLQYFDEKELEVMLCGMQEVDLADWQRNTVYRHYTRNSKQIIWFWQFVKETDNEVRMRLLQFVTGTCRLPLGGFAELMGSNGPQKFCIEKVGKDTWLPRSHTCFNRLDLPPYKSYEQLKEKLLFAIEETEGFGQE

SMILES	increase in antiproliferative properties relative to I3C [1] [fold]	inhibition of WWP1 (in words) [2]	IC50 [2] [µM]	WWP1 RA (%) relative activity [2] [%]	inhibition of WWP2 (in words) [3]	IC50 [3] [µM]	WWP2 RA (%) relative activity [3]	UbcH7 Activity (%) (UbcH7)	IC50 (WWP1) [µM]	IC50 (NEDD4-1) [µM]
O=[N+]([O-])c1cc(S(=O)(=O)n2cc(CO)c3ccccc32)ccc1Cl [OSU-A9]	100	–	–	–	–	–	–	–	–	–
O=S(=O)(c1ccc(C(F)(F)F)cc1)n1cc(CO)c2ccccc21 [Compound 16, N-(4-trifluoromethylbenzenesulfonyl)indole-3-carbinol]	–	displayed inhibition	799	22.5	displayed inhibition	642	30.0%	79.7 ± 1.5	–	–
Cc1ccc(S(=O)(=O)n2cc(CO)c3ccccc32)cc1 [Compound 15, N-(4-methylbenzenesulfonyl)indole-3-carbinol]	–	displayed inhibition	218	11.4	displayed inhibition	224	39.2%	86.3 ± 1.8	–	–
c1ccc2c(Cc3c[nH]c4ccccc34)c[nH]c2c1 [DIM, 3,3′-diindolylmethane]	–	displayed inhibition	111	17.2	–	–	62.2 ± 6.1% and 62.2%	83.3 ± 2.0	–	–
CCc1ccc(C=CC(=O)Nc2ccc(C(C)=O)cc2)o1 [Heclin]	–	–	–	–	–	–	–	–	6.9	–
OCc1cn(Cc2ccccc2)c2ccccc12 [Compound 13, N-benzylindole-3-carbinol]	–	no evidence of inhibition	–	105.9	no evidence of inhibition	–	97.6%	–	–	12.3
